# In patent US20090017103A1, “Antisense oligonucleotides for prevention of metastasis formation of cancer cells” (priority 2003, published 2009):
# Values joined by “and” are separate entries in the source; they are usually repeats but may differ in a detail not shown here. Identical values can stand only once. “Also recorded” adds a separate entry of the source. Marks after values point to notes of the source that are not given here.
# How the values were obtained:
# MDA-MB-231^GFP cells [1] = assay: In vivo treatment with mini-osmotic pumps (osteolytic bone metastasis model);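 on Mean size of lesion: mean lesion size in relative units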;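 on Size of lesion (per animal): lesion size in relative units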; set-up: species or system nude rats; conditions: for X-ray scan of hind legs: lytic lesions (in words): FIG. 5-7; for T/C / Mean size of lesion / Size of lesion (per animal): mini-osmotic pumps; for T/C: vs NSO control; for T/C × 100: mean lesion size vs NSO control rats; for Incidence of metastasis: mini-osmotic pumps s.c., 7 mg/kg daily over four weeks
# MDA-MB-231^GFP cells [2] = assay: In vivo model with pretreated MDA-MB-231^GFP cells (osteolytic bone metastasis); set-up: species or system nude rats; lesion size of the rat(s) that developed lytic metastasis, % of control / lesion sizes with respect to all animals of the group compared to untreated control / lesion size of individual animal compared to the untreated control / T/C % (mean lesion size compared to untreated control): concentration or dose not given beside the values; conditions: for T/C × 100: mean lesion size vs untreated control rats; for Incidence of metastasis: cells pretreated in vitro (10 μM);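 on Mean size of lesion: mean lesion size in relative units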
# [3] = test system: MDA-MB-231 breast cancer cells; assay: Clonogenicity assay (colony formation); assay type: cell-based, human; conditions: for inhibition of colony formation (colony growth inhibition): single exposure; for reduction of colony counts: twofold exposure
# Summary of the method: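 MDA-MB-231 cells given lipofectamine-complexed ASO (5, 10 or 20 μM, 12 h) and/or ErPC3 (10, 14, 20 μM, 24 h), singly or in sequential cycles, then grown 48-72 h. 5000 cells plated in methylcellulose/30% FBS; MTT-stained colonies (≥30 cells) counted after 5-7 days.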
substance,measurement,setting,value
"5′-CTAACTTAAAAAACAAAAGA-3′ (antisense CTAACTTAAAAAACAAAAGA; all phosphorothioate, sugars by position and methylation of C not given here) [ASO-OPN-4]",X-ray scan of hind legs: lytic lesions (in words),MDA-MB-231^GFP cells [1]; eight weeks after tumor cell implantation,"clear increase of lytic lesions in the tibia, however new formation of bone tissue at the edges of the lesions"
same,X-ray scan of hind legs: lytic lesions (in words),"MDA-MB-231^GFP cells [1]; four weeks after tumor cell implantation, therapy from implantation",small lytic lesions in the tibia
same,X-ray scan of hind legs: lytic lesions (in words),MDA-MB-231^GFP cells [1]; six weeks after tumor cell implantation,visible lytic lesions in the tibia
same,X-ray scan of hind legs: lytic lesions (in words),MDA-MB-231^GFP cells [1]; ten weeks after tumor cell implantation,a decrease of the lesions is clearly visible
same,T/C,MDA-MB-231^GFP cells [1]; week 4,58%
same,T/C,MDA-MB-231^GFP cells [1]; week 12,26%
same,T/C × 100,MDA-MB-231^GFP cells [1]; week 4,58
same,Mean size of lesion,MDA-MB-231^GFP cells [1]; week 4,19 R.U.
same,Size of lesion (per animal),MDA-MB-231^GFP cells [1]; week 4,20 R.U. and 41 R.U. and 0 R.U. (2×) and 34 R.U.
same,Incidence of metastasis,"MDA-MB-231^GFP cells [1]; week 4, 7 mg/kg",three out of five and 3/5
same,T/C × 100,MDA-MB-231^GFP cells [1]; week 6,41
same,Mean size of lesion,MDA-MB-231^GFP cells [1]; week 6,73 R.U.
same,Size of lesion (per animal),MDA-MB-231^GFP cells [1]; week 6,35 R.U. and 285 R.U. and 0 R.U. (2×) and 46 R.U.
same,Incidence of metastasis,MDA-MB-231^GFP cells [1]; week 6,3/5
same,T/C × 100,MDA-MB-231^GFP cells [1]; week 8,45
same,Mean size of lesion,MDA-MB-231^GFP cells [1]; week 8,124 R.U.
same,Size of lesion (per animal),MDA-MB-231^GFP cells [1]; week 8,117 R.U. and 415 R.U. and 27 R.U. and 60 R.U. and 0 R.U.
same,Incidence of metastasis,MDA-MB-231^GFP cells [1]; week 8,4/5
same,T/C × 100,MDA-MB-231^GFP cells [1]; week 9,48
same,Mean size of lesion,MDA-MB-231^GFP cells [1]; week 9,134 R.U.
same,Size of lesion (per animal),MDA-MB-231^GFP cells [1]; week 9,435 R.U. and 123 R.U. and 53 R.U. and 57 R.U. and 0 R.U.
same,Incidence of metastasis,MDA-MB-231^GFP cells [1]; week 9,4/5
same,T/C × 100,MDA-MB-231^GFP cells [1]; week 10,29
same,Mean size of lesion,MDA-MB-231^GFP cells [1]; week 10,124 R.U.
same,Size of lesion (per animal),MDA-MB-231^GFP cells [1]; week 10,74 R.U. and 67 R.U. and 45 R.U. and 0 R.U.
same,Incidence of metastasis,MDA-MB-231^GFP cells [1]; week 10,4/5
same,T/C × 100,MDA-MB-231^GFP cells [1]; week 12,26
same,Mean size of lesion,MDA-MB-231^GFP cells [1]; week 12,112 R.U.
same,Size of lesion (per animal),MDA-MB-231^GFP cells [1]; week 12,31 R.U. (2×) and 64 R.U. and 0 R.U.
same,Incidence of metastasis,MDA-MB-231^GFP cells [1]; week 12,3
same,T/C × 100,MDA-MB-231^GFP cells [2]; 4 weeks,3.9
same,T/C × 100,MDA-MB-231^GFP cells [2]; 6 weeks,3.8
same,T/C × 100,MDA-MB-231^GFP cells [2]; 8 weeks,4.3
same,X-ray scan of hind legs: osteolytic lesions (in words),"MDA-MB-231^GFP cells [2]; FIG. 3 and FIG. 4, one rat each, cells pre-exposed, listed as ASO-OPN-04",no osteolysis; also recorded: no visible lytic lesions
same,rats in which formation of osteolytic metastasis was inhibited (no visible metastasis),"MDA-MB-231^GFP cells [2]; cells pre-exposed to ASO, observation period of eight weeks, listed as ASO-OPN-04",Three of four and 3 of 4
same,Incidence of metastasis,MDA-MB-231^GFP cells [2]; observation period 4 weeks,1/4
same,Mean size of lesion,"MDA-MB-231^GFP cells [2]; observation period 4 weeks, pretreated cells",8.5 R.U.
same,Incidence of metastasis,MDA-MB-231^GFP cells [2]; observation period 6 weeks,1/4
same,Mean size of lesion,"MDA-MB-231^GFP cells [2]; observation period 6 weeks, pretreated cells",11.5 R.U.
same,Incidence of metastasis,MDA-MB-231^GFP cells [2]; observation period 8 weeks,1/4^4)
same,Mean size of lesion,"MDA-MB-231^GFP cells [2]; observation period 8 weeks, pretreated cells",15 R.U.
same,T/C % (mean lesion size compared to untreated control),"MDA-MB-231^GFP cells [2]; pretreated cells, after eight weeks",4.3%
same,lesion sizes with respect to all animals of the group compared to untreated control,"MDA-MB-231^GFP cells [2]; pretreated cells, over observation period week 4 to week 8",about 4%
same,lesion sizes of the one metastasis-bearing animal compared to the control,"MDA-MB-231^GFP cells [2]; pretreated cells, overall observation period (8 weeks)",about 16%
same,lesion size of the rat(s) that developed lytic metastasis,"MDA-MB-231^GFP cells [2]; pretreated cells, week 4",34 R.U.
same,"lesion size of the rat(s) that developed lytic metastasis, % of control","MDA-MB-231^GFP cells [2]; pretreated cells, week 4, vs mean of the two control groups (197 R.U.)",17%
same,lesion size of the rat(s) that developed lytic metastasis,"MDA-MB-231^GFP cells [2]; pretreated cells, week 8",60 R.U.
same,"lesion size of the rat(s) that developed lytic metastasis, % of control","MDA-MB-231^GFP cells [2]; pretreated cells, week 8, vs mean of the two control groups (416 R.U.)",17%
same,% Control,"[3]; Exp. III a, repeated exposure 2 × 5 μM",84%
same,Mean colony no.,"[3]; Exp. III a, repeated exposure 2 × 5 μM, control 456","381^6,8)"
same,% Control,"[3]; Exp. III a, repeated exposure 2 × 10 μM",51%
same,Mean colony no.,"[3]; Exp. III a, repeated exposure 2 × 10 μM, control 456","233^7,8)"
same,% Control,"[3]; Exp. III a, repeated exposure 2 × 20 μM",40%
same,Mean colony no.,"[3]; Exp. III a, repeated exposure 2 × 20 μM, control 456",181^7)
same,% Control,"[3]; Experiment I, single treatment, 5 μM",85%
same,Mean colony no.,"[3]; Experiment I, single treatment, 5 μM, control 778",658^6)
same,% Control,"[3]; Experiment I, single treatment, 10 μM",61%
same,Mean colony no.,"[3]; Experiment I, single treatment, 10 μM, control 778",475^7)
same,% Control,"[3]; Experiment I, single treatment, 20 μM",53%
same,Mean colony no.,"[3]; Experiment I, single treatment, 20 μM, control 778",416
same,% Control,"[3]; Experiment III b, repeated exposure 2 × 5 μM",63%
same,Mean colony no.,"[3]; Experiment III b, repeated exposure 2 × 5 μM, control 517","330^6,8)"
same,% Control,"[3]; Experiment III b, repeated exposure 2 × 10 μM",57%
same,Mean colony no.,"[3]; Experiment III b, repeated exposure 2 × 10 μM, control 517","296^7,8)"
same,% Control,"[3]; Experiment III b, repeated exposure 2 × 20 μM",50%
same,Mean colony no.,"[3]; Experiment III b, repeated exposure 2 × 20 μM, control 517",258^8)
same,inhibition of colony formation (colony growth inhibition),[3]; 5 μM,15%
same,inhibition of colony formation (colony growth inhibition),[3]; 10 μM,39%
same,inhibition of colony formation (colony growth inhibition),"[3]; 20 μM, listed as ASO-OPN-04, 20 µM",47% and 46%
same,reduction of colony counts,[3]; 5 μM,16%
same,reduction of colony counts,[3]; 20 μM,60%
same,"repeated exposure compared with single exposure, colony formation (in words)",[3]; twofold vs single ASO exposure,more effective than single exposure
